Converted amounts (≈) assume the structure as drawn.
Key:
Type in all cases: cell-based
[1] = test system: Pseudomonas aeurginosa NCTC 10490; assay: MIC, two-fold dilution method, Pseudomonas aeurginosa NCTC 10490; details: 10^6 CFU per ml, 37° C., 18 to 20 hours; for MIC: NCTC10490, Muller Hinton Broth, read-out: Antibacterial Activity (MIC); for Antibacterial Activity (MIC): Muller Hinton Broth
Protocol: (§1) In order to illustrate the usefulness of the invented compounds, the minimal inhibitory concentrations-(MIC) thereof against standard strains were determined and compared with Cefotaxime, a known compound. Also, the in vitro antibacterial activity was determined by a two-fold dilution method as described below: That is, the two-fold serial dilutions of the compound were made and dispersed in Muller Hinton Broth medium. Standard test strain which had the 10^6 CFU per ml was inoculated on the medium, and was incubated at 37° C. for 18 to 20 hours.

[2] = test system: Bacillus subtilis ATCC 6633; assay: MIC, two-fold dilution method, Bacillus subtilis ATCC 6633; details: 10^6 CFU per ml, 37° C., 18 to 20 hours; for MIC: ATCC6633, Muller Hinton Broth, read-out: Antibacterial Activity (MIC); for Antibacterial Activity (MIC): Muller Hinton Broth
Protocol: as §1

[3] = test system: Esherichia coli ATCC 25922; assay: MIC, two-fold dilution method, Esherichia coli ATCC 25922; details: Muller Hinton Broth, 10^6 CFU per ml, 37° C., 18 to 20 hours; for MIC: read-out: Antibacterial Activity (MIC)
Protocol: as §1

[4] = test system: Staphylococcus epidermidis ATCC 12228; assay: MIC, two-fold dilution method, Staphylococcus epidermidis ATCC 12228; details: 10^6 CFU per ml, 37° C., 18 to 20 hours; for MIC: ATCC12228, Muller Hinton Broth, read-out: Antibacterial Activity (MIC); for Antibacterial Activity (MIC): Muller Hinton Broth
Protocol: as §1

[5] = test system: Staphylococcus aureus ATCC 65389; assay: MIC, two-fold dilution method, Staphylococcus aureus ATCC 65389; details: 10^6 CFU per ml, 37° C., 18 to 20 hours; for MIC: ATCC65389, Muller Hinton Broth, read-out: Antibacterial Activity (MIC); for Antibacterial Activity (MIC): Muller Hinton Broth
Protocol: as §1

[6] = test system: Klebsiella pneumoniae ATCC 10031; assay: MIC, two-fold dilution method, Klebsiella pneumoniae ATCC 10031; details: 10^6 CFU per ml, 37° C., 18 to 20 hours; for MIC: ATCC10031, Muller Hinton Broth, read-out: Antibacterial Activity (MIC); for Antibacterial Activity (MIC): Muller Hinton Broth
Protocol: as §1

[7] = test system: Streptococcus faecalis ATCC 10541; assay: MIC, two-fold dilution method, Streptococcus faecalis ATCC 10541; details: 10^6 CFU per ml, 37° C., 18 to 20 hours; for MIC: Enterococcus faecalis, ATCC10541, Muller Hinton Broth, read-out: Antibacterial Activity (MIC); for Antibacterial Activity (MIC): Muller Hinton Broth
Protocol: as §1

MIC [1] [µg/mL]	MIC [2] [µg/mL]	MIC [3] [µg/mL]	MIC [4] [µg/mL]	MIC [5] [µg/mL]	MIC [6] [µg/mL]	MIC [7] [µg/mL]	Antibacterial Activity (MIC) [1] [µg/mL]	Antibacterial Activity (MIC) [2] [µg/mL]	Antibacterial Activity (MIC) [3] [µg/mL]	Antibacterial Activity (MIC) [4] [µg/mL]	Antibacterial Activity (MIC) [5] [µg/mL]	Antibacterial Activity (MIC) [6] [µg/mL]	Antibacterial Activity (MIC) [7] [µg/mL]	Structure (SMILES)
3.13 (≈ 4.39 µM)	0.39 (≈ 0.547 µM)	6.25 (≈ 8.77 µM)	0.1 (≈ 0.14 µM)	0.2 (≈ 0.281 µM)	0.39 (≈ 0.547 µM)	0.013 (≈ 0.0182 µM)	–	–	–	–	–	–	–	C=CCO/N=C(\C(=O)NC1C(=O)N2C(C(=O)[O-])=C(CSc3cc[n+](C)c4cc(N5CCN(C)CC5)c(F)cc34)CSC12)c1csc(N)n1 (stereo not drawn) [Compound I-22, 7-[(Z)-2-(2-aminothiazol-4-yl)-2-(allyloxyimino)acetamido]-3-[1-methyl-6-fluoro-7-(N-methylpiperazinyl)quinolinium-4-yl]thiomethyl-3-cephem-4-carboxylate]
–	–	–	–	–	–	–	0.78	0.78	1.56	1.56	1.56	0.78	0.2	Cc1cn(-c2cc3c(cc2F)c(SCC2=C(C(=O)[O-])N4C(=O)C(NC(=O)/C(=N\OC(C)(C)C(=O)O)c5csc(N)n5)[C@H]4SC2)cc[n+]3C2CC2)cn1 (stereo partly drawn) [Compound I-68, 7-[(Z)-2-(2-aminothiazol-4-yl)-2-(2-carboxyprop-2-oxyimino)acetamido]-3-[1-cyclopropyl-6-fluoro-7-(4-methylimidazolyl)quinolinium-4-yl]thiomethyl-3-cephem-4-carboxylate]
1.56 (≈ 2.32 µM)	0.2 (≈ 0.297 µM)	0.78 (≈ 1.16 µM)	0.1 (≈ 0.149 µM)	0.2 (≈ 0.297 µM)	0.2 (≈ 0.297 µM)	0.05 (≈ 0.0743 µM)	–	–	–	–	–	–	–	CO/N=C(\C(=O)NC1C(=O)N2C(C(=O)[O-])=C(CSc3cc[n+](C)c4cc(N5CCNCC5)c(F)cc34)CSC12)c1csc(N)n1 (stereo not drawn) [Compound I-1, 7-[(Z)-2-(2-aminothiazol-4-yl)-2-(methoxyimino)acetamide]-3-(1-methyl-6-fluoro-7-piperazinylquinolinium-4-yl)thiomethyl-3-cephem-4-carboxylate]
0.78 (≈ 1.04 µM)	0.1 (≈ 0.133 µM)	1.56 (≈ 2.08 µM)	0.1 (≈ 0.133 µM)	0.1 (≈ 0.133 µM)	0.78 (≈ 1.04 µM)	0.05 (≈ 0.0666 µM)	–	–	–	–	–	–	–	C#CCO/N=C(\C(=O)NC1C(=O)N2C(C(=O)[O-])=C(CSc3cc[n+](C4CC4)c4cc(N5CCN(CC)CC5)c(F)cc34)CSC12)c1csc(N)n1 (stereo not drawn) [Compound I-43]
1.56 (≈ 3.43 µM)	0.2 (≈ 0.439 µM)	0.78 (≈ 1.71 µM)	0.78 (≈ 1.71 µM)	0.78 (≈ 1.71 µM)	0.39 (≈ 0.856 µM)	0.39 (≈ 0.856 µM)	–	–	–	–	–	–	–	CO/N=C(\C(=O)N[C@@H]1C(=O)N2C(C(=O)O)=C(COC(C)=O)CS[C@H]12)c1csc(N)n1 [CTX, Cefotaxime, reference compound]
–	–	–	–	–	–	–	0.78	0.2	1.56	0.1	0.1	0.2	0.1	C=CCO/N=C(\C(=O)NC1C(=O)N2C(C(=O)[O-])=C(CSc3cc[n+](C)c4cc(N5CCNCC5C)c(F)cc34)CS[C@H]12)c1csc(N)n1 (stereo partly drawn) [Compound I-24, 7-[(Z)-2-(2-aminothiazol-4-yl)-2-(allyloxyimino)acetamido]-3-[1-methyl-6-fluoro-7-(2-methylpiperazinyl)quinolinium-4-yl]thiomethyl-3-cephem-4-carboxylate]
–	–	–	–	–	–	–	1.56	0.1	1.56	0.2	0.1	0.39	0.025	CC[n+]1ccc(SCC2=C(C(=O)[O-])N3C(=O)C(NC(=O)/C(=N\OC)c4csc(N)n4)[C@H]3SC2)c2cc(F)c(N3CCNCC3C)cc21 (stereo partly drawn) [Compound I-12, 7-[(Z)-2-(2-aminothiazol-4-yl)-2-(methoxyimino)acetamido]-3-[1-ethyl-6-fluoro-7-(2-methylpiperazinyl)quinolinium-4-yl]thiomethyl-3-cephem-4-carboxylate]
3.13 (≈ 4.48 µM)	0.39 (≈ 0.558 µM)	12.5 (≈ 17.9 µM)	0.78 (≈ 1.12 µM)	1.56 (≈ 2.23 µM)	0.1 (≈ 0.143 µM)	0.39 (≈ 0.558 µM)	–	–	–	–	–	–	–	CO/N=C(\C(=O)NC1C(=O)N2C(C(=O)[O-])=C(CSc3cc[n+](C4CC4)c4cc(N5CCNCC5)c(F)cc34)CS[C@H]12)c1csc(N)n1 (stereo partly drawn) [Compound I-5, 7-[(Z)-2-(2-aminothiazol-4-yl)-2-(methoxyimino)acetamido]-3-(1-cyclopropyl-6-fluoro-7-piperazinylquinolinium-4-yl)thiomethyl-3-cephem-4-carboxylate]
0.39 (≈ 0.538 µM)	0.2 (≈ 0.276 µM)	6.25 (≈ 8.62 µM)	0.78 (≈ 1.08 µM)	0.78 (≈ 1.08 µM)	0.39 (≈ 0.538 µM)	0.2 (≈ 0.276 µM)	–	–	–	–	–	–	–	C=CCO/N=C(\C(=O)NC1C(=O)N2C(C(=O)[O-])=C(CSc3cc[n+](C4CC4)c4cc(N5CCNCC5)c(F)cc34)CS[C@H]12)c1csc(N)n1 (stereo partly drawn) [Compound I-25, 7-[(Z)-2-(2-aminothiazol-4-yl)-2-(allyloxyimino)acetamido]-3-(1-cyclopropyl-6-fluoro-7-piperazinylquinolinium-4-yl)thiomethyl-3-cephem-4-carboxylate]
–	–	–	–	–	–	–	0.78	0.2	0.39	0.78	0.78	0.39	0.39	CC1CNCCN1c1cc2c(cc1F)c(SCC1=C(C(=O)[O-])N3C(=O)C(NC(=O)/C(=N\OC(C)(C)C(=O)O)c4csc(N)n4)[C@H]3SC1)cc[n+]2C (stereo partly drawn) [Compound I-56, 7-[(Z)-2-(2-aminothiazol-4-yl)-2-(2-carboxyprop-2-oxyimino)acetamido]-3-[1-methyl-6-fluoro-7-(2-methylpiperazinyl)quinolinium-4-yl]thiomethyl-3-cephem-4-carboxylate]
0.39 (≈ 0.537 µM)	0.2 (≈ 0.275 µM)	0.78 (≈ 1.07 µM)	0.2 (≈ 0.275 µM)	0.39 (≈ 0.537 µM)	0.05 (≈ 0.0688 µM)	0.05 (≈ 0.0688 µM)	–	–	–	–	–	–	–	CCN1CCN(c2cc3c(cc2F)c(SCC2=C(C(=O)[O-])N4C(=O)C(NC(=O)/C(=N\OC)c5csc(N)n5)C4SC2)cc[n+]3C2CC2)CC1 (stereo not drawn) [Compound I-7, 7-[(Z)-2-(2-aminothiazol-4-yl)-2-(methoxyimino)acetamido]-3-3-[1-cyclopropyl-6-fluoro-7-(1-ethylpiperazinyl)quinolinium-4-yl]-thiomethyl-3-cephem-4-carboxylate]
1.56 (≈ 2.19 µM)	0.39 (≈ 0.547 µM)	12.5 (≈ 17.5 µM)	0.39 (≈ 0.547 µM)	0.39 (≈ 0.547 µM)	0.1 (≈ 0.14 µM)	0.2 (≈ 0.281 µM)	–	–	–	–	–	–	–	CO/N=C(\C(=O)NC1C(=O)N2C(C(=O)[O-])=C(CSc3cc[n+](C4CC4)c4cc(N5CCN(C)CC5)c(F)cc34)CSC12)c1csc(N)n1 (stereo not drawn) [Compound I-6, 7-[(Z)-2-(2-aminothiazol-4-yl)-2-(methoxyimino)acetamido]-3-[1-cyclopropyl-6-fluoro-7-(N-methylpiperazinyl)quinolinium-4-yl]thiomethyl-3-cephem-4-carboxylate]

Source: US5663331A, “Cephalosporin compounds” (Il-Dong Pharm. Co., Ltd., priority 1992, dated 1997)
